This passage reports IC50 results from BindingDB's records for patent US20250136608 (Cgenetech (Suzhou, China) Co., 2025).

pIC50: −log10 of the molar value.

For test [1], the target named is Tyrosine-protein kinase JAK2 (Homo sapiens, UniProt O60674). In words: JAK2 Kinase Inhibitory Activity Assay.
The target in test [2] is T1, Tyrosine-protein kinase JAK3 (Homo sapiens, UniProt P52333).
T1 sequence (P52333 whole entry): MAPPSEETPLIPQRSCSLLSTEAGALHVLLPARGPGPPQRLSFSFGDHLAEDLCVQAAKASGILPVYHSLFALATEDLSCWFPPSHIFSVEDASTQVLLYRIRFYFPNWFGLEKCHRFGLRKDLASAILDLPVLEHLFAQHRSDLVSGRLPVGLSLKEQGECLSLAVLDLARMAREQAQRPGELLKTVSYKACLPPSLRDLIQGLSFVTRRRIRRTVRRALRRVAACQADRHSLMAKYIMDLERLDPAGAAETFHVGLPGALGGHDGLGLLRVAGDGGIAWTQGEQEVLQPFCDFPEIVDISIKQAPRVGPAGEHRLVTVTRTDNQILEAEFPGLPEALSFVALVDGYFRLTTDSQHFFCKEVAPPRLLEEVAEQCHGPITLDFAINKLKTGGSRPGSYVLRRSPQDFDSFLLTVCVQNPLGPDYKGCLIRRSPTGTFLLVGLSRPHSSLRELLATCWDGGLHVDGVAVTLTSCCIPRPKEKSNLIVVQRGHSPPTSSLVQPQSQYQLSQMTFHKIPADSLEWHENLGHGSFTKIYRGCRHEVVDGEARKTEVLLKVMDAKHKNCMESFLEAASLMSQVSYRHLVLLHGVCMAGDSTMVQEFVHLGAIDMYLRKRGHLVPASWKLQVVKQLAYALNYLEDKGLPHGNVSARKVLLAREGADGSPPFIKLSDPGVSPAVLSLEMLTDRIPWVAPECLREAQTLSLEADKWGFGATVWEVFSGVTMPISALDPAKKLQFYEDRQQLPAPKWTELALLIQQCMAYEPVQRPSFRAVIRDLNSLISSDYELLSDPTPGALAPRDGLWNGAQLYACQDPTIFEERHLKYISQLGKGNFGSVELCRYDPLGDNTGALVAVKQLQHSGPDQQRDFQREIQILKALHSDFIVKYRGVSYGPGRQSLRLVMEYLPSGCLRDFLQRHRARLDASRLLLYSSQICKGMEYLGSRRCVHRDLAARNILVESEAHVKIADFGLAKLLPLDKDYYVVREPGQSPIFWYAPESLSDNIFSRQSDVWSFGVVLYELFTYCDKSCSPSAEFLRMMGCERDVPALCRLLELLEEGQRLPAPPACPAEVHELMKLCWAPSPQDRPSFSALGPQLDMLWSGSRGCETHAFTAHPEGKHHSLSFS
In words: JAK3 Kinase Inhibitory Activity Assay.

Chain of Tyrosine-protein kinase JAK2 (O60674 whole entry): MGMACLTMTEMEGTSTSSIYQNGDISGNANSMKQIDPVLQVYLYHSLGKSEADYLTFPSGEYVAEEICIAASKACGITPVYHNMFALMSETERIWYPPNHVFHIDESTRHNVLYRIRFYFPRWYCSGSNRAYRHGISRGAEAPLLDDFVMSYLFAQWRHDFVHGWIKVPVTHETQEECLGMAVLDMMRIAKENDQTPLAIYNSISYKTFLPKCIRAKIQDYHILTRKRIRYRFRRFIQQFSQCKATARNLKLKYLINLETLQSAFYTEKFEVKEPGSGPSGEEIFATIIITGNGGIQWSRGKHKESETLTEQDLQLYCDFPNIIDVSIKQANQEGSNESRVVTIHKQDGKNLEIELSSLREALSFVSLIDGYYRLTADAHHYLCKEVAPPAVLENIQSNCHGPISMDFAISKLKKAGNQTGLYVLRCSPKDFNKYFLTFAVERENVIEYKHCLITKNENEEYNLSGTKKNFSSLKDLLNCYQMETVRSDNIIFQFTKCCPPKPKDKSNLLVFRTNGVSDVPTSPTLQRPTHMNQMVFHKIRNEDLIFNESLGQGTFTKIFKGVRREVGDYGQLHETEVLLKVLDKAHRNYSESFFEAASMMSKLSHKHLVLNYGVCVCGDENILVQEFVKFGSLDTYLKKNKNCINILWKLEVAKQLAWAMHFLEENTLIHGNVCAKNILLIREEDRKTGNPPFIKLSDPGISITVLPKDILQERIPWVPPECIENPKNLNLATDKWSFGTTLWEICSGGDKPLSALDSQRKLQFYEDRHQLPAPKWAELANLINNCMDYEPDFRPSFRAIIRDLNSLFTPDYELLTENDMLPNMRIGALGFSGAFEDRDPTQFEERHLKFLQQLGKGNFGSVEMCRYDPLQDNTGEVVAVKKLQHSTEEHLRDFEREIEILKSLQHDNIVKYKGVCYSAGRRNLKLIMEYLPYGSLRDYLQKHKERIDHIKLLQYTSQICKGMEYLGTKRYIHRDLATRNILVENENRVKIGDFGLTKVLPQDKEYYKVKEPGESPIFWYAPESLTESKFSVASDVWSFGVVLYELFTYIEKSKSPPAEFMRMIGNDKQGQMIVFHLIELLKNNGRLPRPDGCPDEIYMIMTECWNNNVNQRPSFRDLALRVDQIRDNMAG

As to `N#CCC1(n2cc(-c3ncnc4[nH]ccc34)cn2)CCC(F)(F)CC1` [US20250136608, Compound 1], the pIC50 was 8.55 in test [1] and 6.62 in test [2].
